Measurements as given in patent EP4745127A1, “PYRIMIDINAMINE NUAK INHIBITOR AS WELL AS PREPARATION METHOD THEREFOR AND USE THEREOF” (Technoderma Medicines Inc., priority 2023, dated 2025).

Assays:
NUAK1 = target: T1, NUAK1 (Homo sapiens, UniProt O60285); test: Kinase activity inhibition assay, P81 filter paper binding hot-spot technique (33P-ATP, CHKtide substrate); assay type: biochemical; conditions: final concentration of NUAK1 10 nM; 20 µM CHKtide substrate; incubated 2 hours at room temperature; read-out: IC50 (nM) of Test Compounds of the Present Application against NUAK1
T1 sequence (O60285 1-661): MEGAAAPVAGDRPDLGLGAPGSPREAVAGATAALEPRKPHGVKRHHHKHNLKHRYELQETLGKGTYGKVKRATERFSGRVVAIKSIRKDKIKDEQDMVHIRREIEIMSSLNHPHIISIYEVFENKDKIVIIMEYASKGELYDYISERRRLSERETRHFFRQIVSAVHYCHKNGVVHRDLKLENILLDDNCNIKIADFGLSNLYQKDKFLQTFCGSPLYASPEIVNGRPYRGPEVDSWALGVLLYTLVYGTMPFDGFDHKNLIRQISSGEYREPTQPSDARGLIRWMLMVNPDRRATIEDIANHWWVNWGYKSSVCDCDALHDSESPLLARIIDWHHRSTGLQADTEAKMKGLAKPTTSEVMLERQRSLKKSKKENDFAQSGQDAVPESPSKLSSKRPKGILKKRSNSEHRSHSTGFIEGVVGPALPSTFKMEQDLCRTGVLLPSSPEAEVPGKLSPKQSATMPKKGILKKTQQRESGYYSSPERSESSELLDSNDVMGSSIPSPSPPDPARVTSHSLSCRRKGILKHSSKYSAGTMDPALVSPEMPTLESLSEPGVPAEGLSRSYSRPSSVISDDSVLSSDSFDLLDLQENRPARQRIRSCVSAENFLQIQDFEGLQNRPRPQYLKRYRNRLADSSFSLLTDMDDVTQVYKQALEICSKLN
Description: (§1) The inhibitory activity of the pyrimidinamine small molecules involved in the present application against NUAK1 and NUAK2 kinases was determined using a kinase activity assay based on the P81 filter paper binding hot-spot technique (Nat Biotechnol. 2011, 29:1039). A brief description is as follows:
(§2) The assay buffer system contained 20 mM Hepes (pH 7.5), 10 mM MgCl2, 1 mM EGTA, 0.01% Brij35 (L23 polyoxyethylene lauryl ether), 0.02 mg/mL BSA (bovine serum albumin), 0.1 mM Na3VO4, 2 mM DTT, and 1% DMSO.
(§3) • 1. A 20 µM substrate solution was prepared with freshly prepared test buffer and CHKtide peptide fragments (Sanchez Y. Science. 1997, 277: 1497-1501) were used as a substrate. • 2. Kinases were added and mixed gently (a final concentration of NUAK1 was 10 nM; and a final concentration of NUAK2 was 50 nM). • 3. Test compounds dissolved in 100% DMSO were each added to the above kinase reaction mixture solution via Acoustic Droplet Ejection (Echo550; nanoliter) and the mixture was incubated for 5 minutes at room temperature. • 4. ^33P-labeled ATP (a ratio of unlabeled ATP to labeled ATP was 25:1 or 2.5:1) was added. • 5. The mixture was incubated for 2 hours at room temperature. • 6. Kinase activity was tested using the P81 filter paper combined with hotspot technology.
(§4) The IC50 values of the test compounds against NUAK1/NUAK2 were calculated according to the above test. For specific results, see Table 1.
(§5) The IC50 values were calculated by using a formula derived from sigmoidal dose-response curve (variable slope):
(§6) Y = Bottom + (Top-Bottom)/(1+10^((LogEC50-X)*Slope, where X is the logarithm of compound concentration, Y is the response (inhibition rate of kinase activity), and Y rises from bottom to top along the sigmoidal curve as the concentration increases. Table 1: IC50 (nM) of Test Compounds of the Present Application against NUAK1/NUAK2

NUAK2 = target: T2, NUAK2 (Homo sapiens, UniProt Q9H093); test: as above; assay type: biochemical; conditions: final concentration of NUAK2 50 nM; 20 µM CHKtide substrate; incubated 2 hours at room temperature; read-out: IC50 (nM) of Test Compounds of the Present Application against NUAK2
T2 sequence (Q9H093 1-628): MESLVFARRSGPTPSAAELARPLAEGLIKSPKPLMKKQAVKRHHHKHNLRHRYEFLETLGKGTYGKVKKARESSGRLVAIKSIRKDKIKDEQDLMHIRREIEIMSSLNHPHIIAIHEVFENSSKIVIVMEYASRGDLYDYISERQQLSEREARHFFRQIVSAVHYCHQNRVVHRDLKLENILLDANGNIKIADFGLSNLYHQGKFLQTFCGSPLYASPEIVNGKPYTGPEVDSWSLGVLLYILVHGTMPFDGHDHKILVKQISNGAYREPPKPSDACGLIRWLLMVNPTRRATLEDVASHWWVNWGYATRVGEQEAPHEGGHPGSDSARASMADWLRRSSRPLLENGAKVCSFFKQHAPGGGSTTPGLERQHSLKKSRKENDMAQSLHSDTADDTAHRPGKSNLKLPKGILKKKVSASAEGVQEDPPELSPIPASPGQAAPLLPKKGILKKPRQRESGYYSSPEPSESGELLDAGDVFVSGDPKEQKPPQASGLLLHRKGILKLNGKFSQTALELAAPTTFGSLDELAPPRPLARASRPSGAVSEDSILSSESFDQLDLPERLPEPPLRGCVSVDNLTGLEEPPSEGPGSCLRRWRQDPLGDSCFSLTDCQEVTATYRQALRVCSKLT
Description: as §1, §2, §3, §4, §5, §6

| IC50 (NUAK1) [nM] | IC50 (NUAK2) [nM] | Structure (SMILES) |
| --- | --- | --- |
| 24 | 37 | COc1cc(N2CCN(C)CC2)ccc1Nc1ncc(Cl)c(Oc2ccccc2NC(=O)C2CC2)n1 [TDM-181132, N-(2-((5-Chloro-2-((2-methoxy-4-(4-methylpiperazin-1-yl)phenyl)amino)pyrimidin-4-yl)oxy)phenyl)cyclopropanecarboxamide] |
| 4 | 13 | COc1cc(N2CCN(C)CC2)ccc1Nc1ncc(Cl)c(Oc2ccccc2NC(=O)[C@@H]2CC2(F)F)n1 [TDM-181160, (S)-N-(2-((5-Chloro-2-((2-methoxy-4-(4-methylpiperazin-1-yl)phenyl)amino)pyrimidin-4-yl)oxy)phenyl)-2,2-difluorocyclopropane-1-carboxamide] |
| 161 | 352 | O=C(Nc1cccc(Oc2nc(Nc3cnn(C4CCNCC4)c3)ncc2Cl)c1)C1CC1(F)F (stereo not shown) [TDM-181127, N-(3-((5-Chloro-2-((1-(piperidin-4-yl)-1H-pyrazol-4-yl)amino)pyrimidin-4-yl)oxy)phenyl)-2,2-difluorocyclopropane-1-carboxamide] |
| 21 | 311 | CN1CCN(c2ccc(Nc3ncc(Cl)c(Oc4cccc(NC(=O)C5CC5(F)F)c4)n3)cc2)CC1 (stereo not shown) [TDM-181120] |

| Structure (SMILES) | IC50 (NUAK1) [nM] | IC50 (NUAK2) [nM] |
| --- | --- | --- |
| CN1CCN(c2ccc(Nc3ncc(Cl)c(N(C)c4cccc(NC(=O)[C@@H]5CC5(F)F)c4)n3)cc2)CC1 [TDM-181131, (S)-N-(3-((5-Chloro-2-((4-(4-methylpiperazin-1-yl)phenyl)amino)pyrimidin-4-yl)(methyl)amino)phenyl)-2,2-difluorocyclopropane-1-carboxamide] | 81 | 635 |
